Where a SMILES comes first, the peptide text is derived from it.
Key:
[1] = Initial pH screening of the composition; assay type: physicochemical; conditions: for I pH (initial pH), 0.10%: nitrogen compound 0.10 wt/vol % with 1.0 wt/vol % α methyl-D glucoside in medium; for I pH (initial pH), 0.50%: nitrogen compound 0.50 wt/vol % with 1.0 wt/vol % α methyl-D glucoside in medium; for I pH (initial pH), 1.00%: nitrogen compound 1.00 wt/vol % with 1.0 wt/vol % α methyl-D glucoside in medium
Source text: Each composition in Table 1 went through initial screening measures of solubility and initial pH (“I pH”). […] When a specific concentration of a nitrogen containing compound was insoluble, the initial and final pH (“F pH”) of the combined composition was not measured and accordingly are each marked as “NM.” Additionally, initial pH of the composition was checked as a screening measure. The initial pH was marked as either Low (“L”), High (“H”), or Pass (“P”). A Low initial pH corresponds to an initial pH being less than 5.5, a High initial pH corresponds to an initial pH being greater than 6.5, and a Pass initial pH corresponds to the pH being at or between 5.5-6.5. […] As part of the Therapeutic Effect Protocol, a final pH was also measured after the compositions that were tested against the Lactobacillus and E. coli.
(§1) All of the ingredients in Table 2 were combined and the pH was adjusted to 6.5. […] To evaluate the effect of various nitrogen containing therapeutic agents on the growth of bacteria, the LAPT-g media, prepared as described above, was supplemented with various nitrogen containing compound therapeutic agents to a final test concentration between 0.1 and 1.0%. As initial screening measures, solubility and initial pH of each composition were checked. If a specific composition was insoluble (as detected by visual indication of precipitates or turbidity), then no further therapeutic efficacy testing was undertaken on that composition. Additionally, if the initial pH of the composition was below 5.5 (“Low”) or was above 6.5 (“High”), then no further therapeutic efficacy testing was undertaken on that composition.

L. crispatus and E. coli = experiment: Therapeutic Effect Protocol: L. crispatus / E. coli co-culture, ratio after 36 hours; assay type: cell-based, Lactobacillus crispatus; E. coli; conditions: for Therapeutic Efficacy Results (Lactobacillus/E. coli) 0.10%: nitrogen compound 0.10 wt/vol % with 1.0 wt/vol % α methyl-D glucoside (10:1); for Therapeutic Efficacy Results (Lactobacillus/E. coli) 0.10% / Therapeutic Efficacy Results (Lactobacillus/E. coli) 0.50% / Therapeutic Efficacy Results (Lactobacillus/E. coli) 1.00%: 36 hours anaerobic co-culture, 37° C.; for Therapeutic Efficacy Results (Lactobacillus/E. coli) 0.50%: nitrogen compound 0.50 wt/vol % with 1.0 wt/vol % α methyl-D glucoside (2:1); for Therapeutic Efficacy Results (Lactobacillus/E. coli) 1.00%: nitrogen compound 1.00 wt/vol % with 1.0 wt/vol % α methyl-D glucoside (1:1); for Therapeutic effect when ratio α methyl-D glucoside : nitrogen compound is less than 2:1 (1:1) / Therapeutic effect when ratio α methyl-D glucoside : nitrogen compound is at least about 2:1, but not at 1:1 / Therapeutic effect at ratio 2:1 and 10:1, but not at 1:1 / Therapeutic effect (ratio of Lactobacillus to E. coli greater than 2) at each concentration tested: with α methyl-D glucoside; for Therapeutic effect when ratio α methyl-D glucoside : nitrogen compound is less than 2:1 (1:1): ratio 1:1; for Therapeutic effect when ratio α methyl-D glucoside : nitrogen compound is at least about 2:1, but not at 1:1: ratio at least about 2:1, not 1:1; for Therapeutic effect at ratio 2:1 and 10:1, but not at 1:1: ratios 2:1 and 10:1, not 1:1; for Therapeutic effect (ratio of Lactobacillus to E. coli greater than 2) at each concentration tested: nitrogen compound 1 wt/vol %, 0.5 wt/vol % and 0.1 wt/vol %
Procedure: As used herein the term “therapeutic effect” refers to the ability of the compositions and formulations of the present invention to stimulate the growth of Lactobacillus relative E. coli measured according to the Therapeutic Effect Protocol described below. Generally, therapeutic effect is expressed as a ratio of Lactobacillus to E. coli and is desirably greater than about 2, more preferably greater than about 20 and more desirably greater than about 100.
The data in Table 1 was tested according to the Therapeutic Effect Protocol as described further herein. The nitrogen compounds were tested for their therapeutic efficacy at three different concentrations when combined with α methyl-D glucoside (1% wt/vol %). The concentrations of the nitrogen containing compounds that were tested were 1% wt/vol %, 0.5% wt/vol %, and 0.1% wt/vol %.
Colonies of L. crispatus and E. coli were prepared as follows. A colony of L. crispatus was transferred to 7 ml de Man, Rogosa & Sharpe (MRS) broth and incubated anaerobically (using BD GasPak EZ anaerobe container system with indicator) at 37° C. without shaking for 18-20 hours. A colony of E. coli was transferred to 5 ml Tryptic Soy Broth (TSB) and incubated aerobically (shaking at 100 rpm) at 37° C. for 18-20 hours.
Colonies were then inoculated as follows. Bacterial cultures were gently vortexed and 1 mL of each culture was transferred to a corresponding 2.0 mL micro-centrifuge tube and then centrifuged for two minutes at 14,500 rpm. The cultural supernatant was removed and the cell pellet was re-suspended in 1 mL of 0.95% (wt/vol %) saline. […] For L. crispatus, the pellet was re-suspended in 1 mL of 0.95% saline to achieve ˜10^7-10^8 cfu/mL. For E. coli, the pellet was re-suspended in 1 mL of 0.95% saline to achieve ˜10^8-10^9 cfu/mL.
Media were prepared as follows.
as §1
Five milliliters (5 mL) of each medium was transferred to a test tube in duplicates for subsequent inoculation. A master mixture of L. crispatus and E. coli, prepared as described above, was prepared in 1,000:1 ratio. Each (5 ml) test tube was inoculated with the master mixture to give 10^5-10^6 total CFU L. crispatus and 100-1,000 total CFU E. coli per tube.
To establish a negative control, one tube was vortexed and 100 μL was removed to determine the initial cell concentrations by serial dilutions and plating (2 plates per dilution). L. crispatus is selected on MRS agar plates incubated anaerobically at 37° C. for two days. E. coli is selected on TSA plates incubated aerobically at 37° C. for one day. The co-cultures were incubated in an anaerobic container with BD GasPaks at 37° C. for 36 hours.
The effect of the α methyl-D glucoside and the nitrogen containing compound therapeutic agents on the ratio of L. crispatus to E. coli was measured 36 hours after inoculation and a final pH of the test solutions was recorded. The co-culture tube was vortexed and 100 μL was removed to determine the final cell concentrations by serial dilutions and plating (2 plates per dilution). L. crispatus is selected on MRS agar plates incubated anaerobically at 37° C. for two days.

| SMILES | I pH (initial pH), 0.10% [1] | I pH (initial pH), 0.50% [1] | I pH (initial pH), 1.00% [1] | Therapeutic Efficacy Results (Lactobacillus/E. coli) 0.10% (L. crispatus and E. coli) | Therapeutic Efficacy Results (Lactobacillus/E. coli) 0.50% (L. crispatus and E. coli) | Therapeutic Efficacy Results (Lactobacillus/E. coli) 1.00% (L. crispatus and E. coli) | Therapeutic effect when ratio α methyl-D glucoside : nitrogen compound is less than 2:1 (1:1) (L. crispatus and E. coli) | Therapeutic effect when ratio α methyl-D glucoside : nitrogen compound is at least about 2:1, but not at 1:1 (L. crispatus and E. coli) | Therapeutic effect at ratio 2:1 and 10:1, but not at 1:1 (L. crispatus and E. coli) | Therapeutic effect (ratio of Lactobacillus to E. coli greater than 2) at each concentration tested (L. crispatus and E. coli) |
| --- | --- | --- | --- | --- | --- | --- | --- | --- | --- | --- |
| CCC(N)C(=O)O (racemic) [DL-a-amino-n-butyric acid] | P (a Pass initial pH corresponds to the pH being at or between 5.5-6.5) | P (a Pass initial pH corresponds to the pH being at or between 5.5-6.5) | P (a Pass initial pH corresponds to the pH being at or between 5.5-6.5) | 0.34 | 100 | 4.44 | provided a therapeutic effect | provided a therapeutic effect |  |  |
| C[C@H](N)C(=O)N[C@H](C(=O)O)[C@@H](C)O [H-Ala-Thr-OH] (H-Ala-Thr-OH) | P (a Pass initial pH corresponds to the pH being at or between 5.5-6.5) | P (a Pass initial pH corresponds to the pH being at or between 5.5-6.5) | P (a Pass initial pH corresponds to the pH being at or between 5.5-6.5) | 212 | >103 | 1.64 |  | provided a therapeutic effect | provided a therapeutic effect |  |
| NCC(=O)N[C@@H](CCC(=O)O)C(=O)O [Gly-Glu] (H-Gly-Glu-OH) | P (a Pass initial pH corresponds to the pH being at or between 5.5-6.5) | L (A Low initial pH corresponds to an initial pH being less than 5.5) | L (A Low initial pH corresponds to an initial pH being less than 5.5) | 6.83 |  |  |  | provided a therapeutic effect |  |  |
| Cl.N[C@H]1C(O)O[C@H](CO)[C@H](O)[C@@H]1O (stereo partly drawn) [D-Galactosamine HCL] | P (a Pass initial pH corresponds to the pH being at or between 5.5-6.5) | P (a Pass initial pH corresponds to the pH being at or between 5.5-6.5) | P (a Pass initial pH corresponds to the pH being at or between 5.5-6.5) | 6.72 | >1220 | 1.29 |  | provided a therapeutic effect | provided a therapeutic effect |  |
| CC(=O)N[C@H]1C(O)O[C@H](CO)[C@H](O)[C@@H]1O (stereo partly drawn) [N-Acetyl-D-Galactosamine] | P (a Pass initial pH corresponds to the pH being at or between 5.5-6.5) | P (a Pass initial pH corresponds to the pH being at or between 5.5-6.5) | P (a Pass initial pH corresponds to the pH being at or between 5.5-6.5) | 130 | >100 | 0.65 |  | provided a therapeutic effect | provided a therapeutic effect |  |
| CC(=O)N[C@@H]1C(O)O[C@H](CO)[C@@H](O)[C@@H]1O (stereo partly drawn) [N-Acetyl-D-Mannosamine] | P (a Pass initial pH corresponds to the pH being at or between 5.5-6.5) | P (a Pass initial pH corresponds to the pH being at or between 5.5-6.5) | P (a Pass initial pH corresponds to the pH being at or between 5.5-6.5) | 0.854 | 100 | 0.02 |  | provided a therapeutic effect |  |  |
| Cl.N[C@@H]1C(O)O[C@H](CO)[C@@H](O)[C@@H]1O (stereo partly drawn) [D-mannosamine HCl] | P (a Pass initial pH corresponds to the pH being at or between 5.5-6.5) | P (a Pass initial pH corresponds to the pH being at or between 5.5-6.5) | P (a Pass initial pH corresponds to the pH being at or between 5.5-6.5) | 0.202 | 84 | 0.96 |  | provided a therapeutic effect |  |  |
| NCC(=O)N[C@@H](CC(N)=O)C(=O)O [Gly-Asn] (H-Gly-Asn-OH) | P (a Pass initial pH corresponds to the pH being at or between 5.5-6.5) | P (a Pass initial pH corresponds to the pH being at or between 5.5-6.5) | P (a Pass initial pH corresponds to the pH being at or between 5.5-6.5) | 108 | >1.58E+04 | 1.3 |  | provided a therapeutic effect | provided a therapeutic effect |  |
| Cl.N[C@H]1C(O)O[C@H](CO)[C@@H](O)[C@@H]1O (stereo partly drawn) [D-Glucosamine HCL] | P (a Pass initial pH corresponds to the pH being at or between 5.5-6.5) | P (a Pass initial pH corresponds to the pH being at or between 5.5-6.5) | P (a Pass initial pH corresponds to the pH being at or between 5.5-6.5) | 77.8 | 6.00E+06 | 454 | provided a therapeutic effect |  |  | provided a therapeutic effect |
| N[C@@H](CS)C(=O)O [L-Cysteine] | P (a Pass initial pH corresponds to the pH being at or between 5.5-6.5) | P (a Pass initial pH corresponds to the pH being at or between 5.5-6.5) | P (a Pass initial pH corresponds to the pH being at or between 5.5-6.5) | >299 | 28.38 | 10.44 | provided a therapeutic effect |  |  | provided a therapeutic effect |

From patent US12029748B2, “Synergistic composition for maintenance of healthy balance of microflora” (KIMBERLY-CLARK WORLDWIDE, INC., priority 2017, dated 2024)
